These results are taken from patent publication US20240002388A1, “PYRIMIDINONE COMPOUNDS AND USES THEREOF” (HUTCHISON MEDIPHARMA LIMITED, priority 2020, published 2024).

For the assay, the system named is L929 cell line (mouse fibroblastoma cell line). As to the kind of experiment: L929 cell viability assay (mTNF-α + Z-VAD-FMK induced necroptosis). The format is cell-based. To be noted: L929 cells, mTNF-α 0.1 μg/mL + Z-VAD-FMK 5 μM, CellTiter-Glo. As for the experimental part:
L929 cell line (mouse fibroblastoma cell line): purchased from ATCC (American Type Culture Collection) Cell Bank, cultured in 5% CO2, 37° C. incubator, and MEM medium which contains L-Glutamine, with 10% FBS was used. • MEM medium: GIBCO, Cat #11095080; • Fetal bovine serum (FBS): GIBCO, Cat #10099-141C; • Dimethyl sulfoxide (DMSO): Sigma, Cat #D2650; • 0.25% Trypsin-EDTA: GIBCO, Cat #25200072; • Recombinant Mouse TNF-alpha Protein (mTNF-α): R&D system, Cat #410-MT-050; • Pan-Caspase inhibitor (Z-VAD-FMK): Selleckchem, Cat #S7023; • CellTiter-Glo 2.0 Cell Viability Assay kit: Promega, Cat #G9242; • Microwell plate reader: Envision, Perkin Elmer; • 96-well plate: Corning, Cat #3917.
The L929 cells at the logarithmic phase were taken out, and the supernatant was discarded. After trypsinization and cell shedding, 10% FBS-containing medium was added for neutralization, and the supernatant was discarded after centrifugation. The cells were re-suspended using 10% FBS-containing medium, adjusted to 7×10^4 cells/ml, added to 96-well microplate at 70 μL/well, i.e., 4.9×10^3 cells/well. Then the plate was incubated in a 5% CO2, 37° C. cell incubator overnight.
After incubating overnight, the 96-well plate was taken out, the medium was discarded, and the plate was washed with 1% FBS-containing MEM medium. Then 1% FBS-containing MEM medium was added at 70 μL/well, and the plate was cultured in a 5% CO2, 37° C. cell incubator. After incubating for 1 hour, the test compound was diluted to the corresponding concentrations using DMSO with 3-fold serial dilution, then the corresponding concentration of DMSO diluted solution was diluted into 1% FBS-containing MEM medium, and 10 μL/well of the diluted test compound with different concentrations (final concentrations of test compound were 10, 3.33, 1.11, 0.37, 0.12, 0.04, 0.014 and 0.005 μM, while final concentration of DMSO was 0.3%) or 10 μL/well control solution (3% DMSO) were added to the cell culture system respectively, with the total volume being 80 μL/well. Then 10 μL of Z-VAD-FMK solution diluted with 1% FBS-containing MEM medium (final concentration of 5 μM) or 10 μL of control solution (2.5% DMSO) was added to each well, with the total volume being 90 μL/well. The plate was incubated in a 5% CO2, 37° C. cell culture incubator for 1 hour.
After incubating for 1 hour, 10 μL of recombinant mouse TNF-α protein solution diluted with 1% FBS-containing MEM medium (final concentration of 0.1 μg/mL) or 10 μL control solution (1% FBS-containing MEM medium) was added to each well. The plate was incubated in a 5% CO2, 37° C. cell culture incubator for 20 hours.
The cell culture plate was taken out from the incubator, and left to stand at room temperature for 30 minutes. Meanwhile, CellTiter-Glo viability assay kit was put from freezer to room temperature, and 50 μL of CellTiter-Glo reagent was added to all wells, the plate was shaken for 1 minutes, protected from light at room temperature for 10 minutes then read the plate on Envision to get the luminescence signal.
The 96-well plate in the dark was taken out, and the chemiluminescence was determined using the Envision microwell plate reader as the signal value of each well.
The mean signal value of the wells of the mixed solution of recombinant mouse TNF-alpha protein (final concentration of 0.1 μg/mL) and Pan-Caspase inhibitor (final concentration of 5 μM) was used as the lower value, and the mean signal value of the wells without stimulation was used as the upper value. According to the signal value of each well, the inhibition rate of each concentration of every compound was calculated, and the IC50 value of compound was obtained by Model 205 in XL-Fit 5.3 software (ID Business Solutions Limited).
Inhibition rate %=[(Luminescence readout of treated compound−Luminescence readout of positive control)/(Luminescence readout of negative control−Luminescence readout of positive control)]×100%, wherein

The IC50 is the concentration needed to halve the response being measured. Regarding `CC(C)n1ncc2cnc(C(=O)NC3(c4ccc(-c5cncn(CC(F)(F)F)c5=O)cc4)CC3)nc21` [Compound 38], where the note is “Mus musculus, L929, 20 h”, the IC50 was found to be 152 nM.

As to `CC(C)n1ncc2cnc(C(=O)NC3(c4ccc(-c5cncn([C@H](C)C(F)(F)F)c5=O)cc4)CC3)nc21` [Compound 39], the IC50 (Mus musculus, L929, 20 h) came to 59 nM.

On to `CC(C)n1ncc2cnc(C(=O)NC3(c4ccc(-c5cncn([C@@H](C)C(F)(F)F)c5=O)cc4)CC3)nc21` [Compound 40], for which the IC50 (Mus musculus, L929, 20 h) was found to be 109 nM.

On to `CC(C)n1ncc2cnc(C(=O)NC3(c4ccc(-c5cncn(C6COC6)c5=O)cc4)CC3)nc21` [Compound 41], for which the IC50 (Mus musculus, L929, 20 h) worked out at 1970 nM.

`CC(C)n1ncc2cnc(C(=O)NC3(c4ccc(-c5cncn(C6CCC6)c5=O)cc4)CC3)nc21` [Compound 42]: for the setting “Mus musculus, L929, 20 h”, the IC50 turned out to be 119 nM.

With `CC[C@H](C)n1cncc(-c2ccc(C3(NC(=O)c4ncc5cnn(C(C)C)c5n4)CC3)cc2)c1=O` [Compound 43], the IC50 (Mus musculus, L929, 20 h) came to 16 nM.

For `CC[C@@H](C)n1cncc(-c2ccc(C3(NC(=O)c4ncc5cnn(C(C)C)c5n4)CC3)cc2)c1=O` [Compound 44], the concentration for half-maximal inhibition (IC50) (Mus musculus, L929, 20 h) was 28 nM.

Turning to `CC(C)Cn1cncc(-c2ccc(C3(NC(=O)c4ncc5cnn(C(C)C)c5n4)CC3)cc2)c1=O` [Compound 45], the IC50 (Mus musculus, L929, 20 h) is 58 nM.

For the compound `Cn1cncc(-c2ccc(C3(NC(=O)c4nc5n(n4)[C@@H](c4ccccc4)CC5)CC3)cc2)c1=O` [Compound 54, (R)—N-(1-(4-(1-methyl-6-oxo-1,6-dihydropyrimidin-5-yl)phenyl)cyclopropyl)-5-phenyl-6,7-dihydro-5H-pyrrolo[1,2-b][1,2,4]triazole-2-carboxamide], under “Mus musculus, L929, 20 h”, the IC50 stood at 578 nM.

For the compound `C[C@H](c1ccccc1)n1cnc(C(=O)NC2(c3ccc(-c4cncn(C)c4=O)cc3)CC2)n1` [Compound 55, (R)—N-(1-(4-(1-methyl-6-oxo-1,6-dihydropyrimidin-5-yl)phenyl)cyclopropyl)-1-(1-phenylethyl)-1H-1,2,4-triazole-3-carboxamide], where the note is “Mus musculus, L929, 20 h”, the IC50 came out at 259 nM.

Regarding `CC(C)n1cncc(-c2ccc(C3(NC(=O)c4ncc5cnn(C6COC6)c5n4)CC3)cc2)c1=O` [Compound 60], where the note is “Mus musculus, L929, 20 h”, the IC50 is 9080 nM.

With `CC(C)n1cncc(-c2ccc(C3(NC(=O)c4ncc5cnn(CC6CC6)c5n4)CC3)cc2)c1=O` [Compound 61], under “Mus musculus, L929, 20 h”, the IC50 is 48 nM.

With `CC(C)n1cncc(-c2ccc(C3(NC(=O)c4ncc5cnn(CC6CCC6)c5n4)CC3)cc2)c1=O` [Compound 62], the IC50 (Mus musculus, L929, 20 h) worked out at 27 nM.

For the compound `CC(C)n1cncc(-c2ccc(C3(NC(=O)c4ncc5cnn(-c6ccccn6)c5n4)CC3)cc2)c1=O` [Compound 63], where the note is “Mus musculus, L929, 20 h”, the IC50 was 9420 nM.

`O=C(NC1(c2ccc(-c3cncn(CC4CC4)c3=O)cc2)CC1)c1ncc2cnn(CC3CC3)c2n1` [Compound 64]: the IC50 (Mus musculus, L929, 20 h) is 79 nM.

`CC(C)n1ncc2cnc(C(=O)NC3(c4ccc(-c5cncn(C6CC(F)(F)C6)c5=O)cc4)CC3)nc21` [Compound 65]: the half-maximal inhibitory concentration (IC50) (Mus musculus, L929, 20 h) worked out at 861 nM.

On to `CC(C)n1ncc2cnc(C(=O)NC3(c4ccc(-c5cncn(CC6CCC6)c5=O)cc4)CC3)nc21` [Compound 66], for which the concentration for half-maximal inhibition (IC50) (Mus musculus, L929, 20 h) was 53 nM.

With `CC(C)n1ncc2cnc(C(=O)NC3(c4ccc(-c5cncn([C@H]6C[C@@H]6F)c5=O)cc4)CC3)nc21` [Compound 67], the IC50 (Mus musculus, L929, 20 h) turned out to be 5650 nM.

On to `C[C@H](n1cncc(-c2ccc(C3(NC(=O)c4ncc5cnn(CC6CC6)c5n4)CC3)cc2)c1=O)C(F)(F)F` [Compound 68], for which the IC50 (Mus musculus, L929, 20 h) was 32 nM.

In the case of `CC(C)n1ncc2cnc(C(=O)NC3(c4ccc(-c5cncn([C@@H]6C[C@@H]6F)c5=O)cc4)CC3)nc21` [Compound 69], where the note is “Mus musculus, L929, 20 h”, the IC50 turned out to be 98 nM.

Take `C[C@@H](n1cncc(-c2ccc(C3(NC(=O)c4ncc5cnn(CC6CC6)c5n4)CC3)cc2)c1=O)C(F)(F)F` [Compound 70]: for the setting “Mus musculus, L929, 20 h”, the half-maximal inhibitory concentration (IC50) worked out at 12 nM.

As for `C[C@H](n1cncc(-c2ccc(C3(NC(=O)c4ncc5cnn(CC6CC6)c5n4)CC3)c(F)c2)c1=O)C(F)(F)F` [Compound 71], under “Mus musculus, L929, 20 h”, the IC50 was 20 nM.

With `CC(C)n1cncc(-c2ccc(C3(NC(=O)c4ncc5cnn(CC6CC6)c5n4)CC3)c(F)c2)c1=O` [Compound 72], the IC50 (Mus musculus, L929, 20 h) came to 16 nM.

As for `CC(C)n1cncc(-c2ccc(C3(NC(=O)c4ncc5cnn(CC6CC6)c5n4)CC3)cc2F)c1=O` [Compound 73], where the note is “Mus musculus, L929, 20 h”, the IC50 turned out to be 41 nM.

For `CC(C)n1ncc2cnc(C(=O)NC3(c4ccc(-c5cncn(CC6CC6)c5=O)cc4F)CC3)nc21` [Compound 74], the IC50 (Mus musculus, L929, 20 h) stood at 30 nM.

With `CC(C)n1ncc2cnc(C(=O)NC3(c4ccc(-c5cncn(CC6CC6)c5=O)c(F)c4)CC3)nc21` [Compound 75], under “Mus musculus, L929, 20 h”, the half-maximal inhibitory concentration (IC50) was determined as 41 nM.

Consider `C[C@@H](n1cncc(-c2ccc(C3(NC(=O)c4ncc5cnn(CC6CC6)c5n4)CC3)c(F)c2)c1=O)C(F)(F)F` [Compound 76], for which the IC50 (Mus musculus, L929, 20 h) was determined as 32 nM.

In the case of `CC(C)n1ncc2cnc(C(=O)NC3(c4ccc(-c5cncn(C6CCOCC6)c5=O)cc4)CC3)nc21` [Compound 77], the IC50 (Mus musculus, L929, 20 h) is 151 nM.

For `CC(C)n1ncc2cnc(C(=O)NC3(c4ccc(-c5cncn(C6(C)CC6)c5=O)cc4)CC3)nc21` [Compound 78], the IC50 (Mus musculus, L929, 20 h) was 44 nM.

With `CC(C)n1ncc2cnc(C(=O)NC3(c4ccc(-c5cncn(C6(C)CCC6)c5=O)cc4)CC3)nc21` [Compound 79], the IC50 (Mus musculus, L929, 20 h) is 10 nM.

Take `CC(C)n1ncc2cnc(C(=O)NC3(c4ccc(-c5cncn([C@H](C)C6CC6)c5=O)cc4)CC3)nc21` [Compound 84, (R)—N-(1-(4-(1-(1-cyclopropylethyl)-6-oxo-1,6-dihydropyrimidin-5-yl)phenyl)cyclopropyl)-1-i-propyl-1H-pyrazolo[3,4-d]pyrimidine-6-carboxamide]: the IC50 (Mus musculus, L929, 20 h) stood at 7 nM.

For `CC(C)n1ncc2cnc(C(=O)NC3(c4ccc(-c5cncn([C@@H](C)C6CC6)c5=O)cc4)CC3)nc21` [Compound 85, (S)—N-(1-(4-(1-(1-cyclopropylethyl)-6-oxo-1,6-dihydropyrimidin-5-yl)phenyl)cyclopropyl)-1-i-propyl-1H-pyrazolo[3,4-d]pyrimidine-6-carboxamide], where the note is “Mus musculus, L929, 20 h”, the IC50 was determined as 13 nM.

As for `CC(C)n1ncc2cnc(C(=O)NC3(c4ccc(-c5cncn(CC6(C)CC6)c5=O)cc4)CC3)nc21` [Compound 86], the IC50 (Mus musculus, L929, 20 h) was 19 nM.

In the case of `CC(C)n1ncc2cnc(C(=O)NC3(c4ccc(-c5cncn([C@H]6C[C@H](F)C6)c5=O)cc4)CC3)nc21` [Compound 87, N-(1-(4-(1-(trans-3-fluorocyclobutyl)-6-oxo-1,6-dihydropyrimidin-5-yl)phenyl)cyclopropyl)-1-i-propyl-1H-pyrazolo[3,4-d]pyrimidine-6-carboxamide], the IC50 (Mus musculus, L929, 20 h) is 393 nM.

As to `CC(C)n1ncc2cnc(C(=O)NC3(c4ccc(-c5cncn([C@H]6C[C@@H](F)C6)c5=O)cc4)CC3)nc21` [Compound 88, N-(1-(4-(1-(cis-3-fluorocyclobutyl)-6-oxo-1,6-dihydropyrimidin-5-yl)phenyl)cyclopropyl)-1-i-propyl-1H-pyrazolo[3,4-d]pyrimidine-6-carboxamide], under “20 hours”, the IC50 is 335 nM.

Regarding `CC(C)n1cncc(-c2ccc(C3(NC(=O)c4ncc5cnn([C@H](C)C6CC6)c5n4)CC3)cc2)c1=O` [Compound 89, (R)-1-(1-cyclopropylethyl)-N-(1-(4-(1-i-propyl-6-oxo-1,6-dihydropyrimidin-5-yl)phenyl)cyclopropyl)-1H-pyrazolo[3,4-d]pyrimidine-6-carboxamide], the IC50 (Mus musculus, L929, 20 h) was 38 nM.
